How the values were obtained:
[1] = tested on: animals with fully expressed AA; settings: cited from earlier work
[2] = tested on: collagen-induced arthritis; settings: in vivo; cited from earlier work
Lewis rats with AA [3] = assay: Adjuvant-induced arthritis, dorsoplantar footpad width (Example 1); type: in vivo, rat; settings: single drug i.p. twice a day from day 12; by day 28 post-adjuvant injection
Description: Lewis rats with AA, a model for RA, were used to examine the combined action of the β2-adrenergic receptor agonist terbutaline and the non-specific α-AR antagonist phentolamine. AA was induced in adult male Lewis rats (200-225 gm) by a base of the tail intradermal injection of complete Freund's adjuvant (CFA). The CFA (0.03 g dried and heat killed Mycobacterium butyricum (Difco, Detroit, Mich.) emulsified in 10 ml sterile mineral oil) was prepared by grinding the M. butyricum with a mortar and pestle until the bacterial cell wall turned from a light beige to an eggshell white powder. The mineral oil was then slowly worked into the bacterial cell wall using the mortar and pestle. The suspension was treated with a sonic dismembraner for 5 minutes to ensure that the bacterial cell wall remained suspended in the mineral oil for animal injections. While there was variability in the severity of disease development between the preparations of adjuvant, there was very little variability within individual batches. […] The inflammatory response in the arthritic rats was assessed by routine methods previously described. Dorsoplantar width of the hind feet were measured using a Mitutoyo Corporation dial thickness gauge, beginning the day of CFA-immunization and continued approximately every other day until sacrifice. […]

Lewis rats with AA [4] = assay: Adjuvant-induced arthritis, radiographic scores of hind limbs (Example 1); type: in vivo, rat; settings: i.p. twice a day from day 12; day 28
Description: Lewis rats with AA, a model for RA, were used to examine the combined action of the β2-adrenergic receptor agonist terbutaline and the non-specific α-AR antagonist phentolamine. AA was induced in adult male Lewis rats (200-225 gm) by a base of the tail intradermal injection of complete Freund's adjuvant (CFA). The CFA (0.03 g dried and heat killed Mycobacterium butyricum (Difco, Detroit, Mich.) emulsified in 10 ml sterile mineral oil) was prepared by grinding the M. butyricum with a mortar and pestle until the bacterial cell wall turned from a light beige to an eggshell white powder. The mineral oil was then slowly worked into the bacterial cell wall using the mortar and pestle. The suspension was treated with a sonic dismembraner for 5 minutes to ensure that the bacterial cell wall remained suspended in the mineral oil for animal injections. While there was variability in the severity of disease development between the preparations of adjuvant, there was very little variability within individual batches. All animals in each experiment were challenged with the same preparation of adjuvant and 100% of the animals developed arthritis. Phentolamine (an α-adrenergic receptor antagonist) and terbutaline (a β2-adrenergic receptor agonist) were obtained from Sigma Chemical Company (St. Louis, Mo.). Both adrenergic drugs were dissolved in 0.01 mM ascorbic acid in 0.9% sterile, endotoxin-free saline. Adrenergic therapy with phentolamine and/or terbutaline or vehicle was started on day 12 post-immunization, the time of disease onset, and continued until sacrifice. The dose of phentolamine (500 μg/Kg/day) and/or terbutaline (600 μg/day) were administered by intraperitoneal (i.p.) injections twice a day in a total volume of 500 μl per injection. […] X-rays were evaluated using a grading scale modified from Ackerman and coworkers. […] The radiographs were scored for each of the following characteristics: (1) swelling as indicated by the width of soft tissue shadows and alterations in the normal configuration of the soft tissue planes; (2) osteoporosis as measured by bone density (recognized by increases in radiolucency relative to uninvolved adjacent bone); (3) cartilage loss shown by narrowing of the joint spaces; and (4) heterotopic ossification defined as proliferation of new bone tissue (fine ossified line paralleling normal bone but not contiguous with calcified area of the bone itself). The radiographic scores for each category were added for both hind limbs giving a maximum score of 40, and the individual scores for each animal were then averaged within the treatment groups and expressed as a mean±standard error of the mean (SEM), and subjected to Kruskal-Wallis statistical analysis (non-parametric statistic equivalent to an ANOVA; p<0.05) followed by Dunn post-hoc testing. […]

IL-10/TNFα = assay: Ex vivo IL-10 and TNFα production by cells of treated AA rats (sandwich ELISA); type: in vivo, rat; settings: for Ratio of IL-10/TNFα: cells cultured 24 h, mean ± SEM, N = 6
Source text: To determine if the adrenergic drug treatments were able to modify cytokine patterns in the secondary lymphoid organs and systemically in the blood, pro- and anti-inflammatory cytokine profiles were obtained ex vivo from cells harvested from the draining (inguinal and poplitial) lymph nodes, spleen and the PBMC from the animals described above. All tissue culture media and supplements were obtained from Gibco BRL (Rockville, Md.) unless otherwise stated. OPTIA sandwich ELISA kits for IL-10 and TNFα were purchased from Pharmingen (San Diego, Calif.). The spleen and lymph nodes were aseptically removed from the animal and placed into Hank's balanced salt solution (HBSS). The spleens were placed in a stomacher bag and homogenized for 30 seconds. […] The collected cells were centrifuged and re-suspended in 5 ml of a NH4Cl hypotonic buffer for 3 min to lyse the red blood cells. The cells were washed 2× with 10 ml HBSS, centrifuged and re-suspended into complete RPMI 1640 media supplemented with 5% fetal calf serum and 1% antibiotic/antimycotic. The draining (inguinal and poplitial) lymph nodes were placed into sterile etri dishes containing 5 ml HBSS. […] The homogenates then were passed through a nylon mesh, centrifuged and re-suspended in 5 ml HBSS. The cells then were centrifuged and re-suspended into complete RPMI 1640 media supplemented with 5% fetal calf serum and 1% antibiotic/antimycotic. PBMCs: Blood was collected using cardiac puncture into a 7 ml lithium heparin vaccutainer tubes. The tubes were inverted 7 times and then spun down at 1000 rpm for 15 minutes at 10° C. The buffy coat was removed using a 2 ml pipette and placed into a sterile 15 ml tube containing 10 ml of a NH4Cl hypotonic buffer for 3 min to lyse the red blood cells. The peripheral blood mononuclear cells (PBMC) were centrifuged and re-suspended in 10 ml HBSS. The PBMC were washed three more times with 10 ml HBSS, centrifuged and re-suspended into complete RPMI 1640 media supplemented with 5% fetal calf serum and 1% antibiotic/antimycotic. The prepared cells were counted using a hemocytometer, then brought to the concentration of 2×10^6 cells/ml. Two ml of the cell preparation were plated into 24 well plates (Falcon, Oxnard, Calif.), and in placed in an incubator 7% CO2, 37° C., for 24 h. After 24 h the culture supernatants were harvested and placed in the freezer at -70° C. until ELISA assay. Optia kits for the detection of IL-10 and TNFα were obtained from BD Pharmingen (Los Angeles, Calif.) and sandwich ELISAs were used to measure the amount cytokine released into the culture media. In brief: High binding microtiter 96-well plates were pre-coated with 100 μl of capture antibody in coating buffer (0.1 M carbonate buffer, pH 9.5) for IL-2, IL-4, IFNγ and TNFα and (0.2 M phosphate buffer, pH 6.5) for IL-10. The plates were sealed with plate film (Denville Scientific, South Plainfield, N.J.) and placed at 4° C. overnight. The plates were allowed to come to room temperature and washed with 0.1 M phosphate buffered saline-0.5% Tween 20 (PBS-Tw20). The non-specific binding was blocked using PBS-Tw20 and 1% bovine serum albumin. Standard/sample was then added to each well, the plates were sealed and incubated overnight at 4° C. The plate was washed three times with PBS-Tw20 and biotinylated secondary detection antibody and streptavidin/avidin enzyme conjugate (diluted in PBS-1% bovine serum albumin) were added to the wells and the plates incubated for 1.5 h. The plates were then washed and developed with (TMB) reagent (Pharmingen, San Diego, Calif.) for 30 minutes. After color development the plates were stopped with addition of IN sulfuric acid. Unknown sample cytokine levels were determined through comparison with a standard curve present on each plate using an ELISA reader ([…]: Bio Tek Instruments Incorporated, Winooski, Vt.). […]

[5] = tested on: Th cells cultured with B cell clones; settings: applied to Th cells before activation, cited from earlier work
Th2 cell clones = settings: treated before activation; cited from earlier work
Th1 cell clones = settings: cited from earlier work

Which “Joint inflammation and destruction” value [1] does the source give for O=P(O)(O)C(Cl)(Cl)P(=O)(O)O [clodronate] here?
The value was “significantly reduced”.

For CC(C)(C)NCC(O)c1ccc(O)c(CO)c1 (centres unmarked) [salbutamol], which “Severity of collagen-induced arthritis” value [2] is on record?
The value was “reduces the severity”.

What does the source list for Cc1ccc(N(CC2=NCCN2)c2cccc(O)c2)cc1 [Phentolamine]?
Soft tissue swelling (dorsoplantar footpad width) compared with vehicle-treated AA rats (Lewis rats with AA [3]): significantly decreased; Decrease in bone loss compared to vehicle-treated AA rats (Lewis rats with AA [4]): 51%; Radiographic scores compared with vehicle controls (Lewis rats with AA [4]): significantly reduced; Ratio of IL-10/TNFα (IL-10/TNFα; DLN): 1.0960 ± 0.1961; Ratio of IL-10/TNFα (IL-10/TNFα; PBL): 0.8067 ± 0.1762; Ratio of IL-10/TNFα (IL-10/TNFα; SPL): 3.3350 ± 0.6716; Ratio of anti- to pro-inflammatory cytokine production by macrophage cells (IL-10/TNFα; secondary lymphoid organs and peripheral blood): increase

With CC(C)(C)NCC(O)c1cc(O)cc(O)c1 (centres unmarked) [Terbutaline, terbutaline] as the molecule, how does the “Soft tissue swelling (dorsoplantar footpad width) compared with vehicle-treated AA rats” value (Lewis rats with AA [3]) read?
Its value is “significantly decreased”.

What about the “Decrease in bone loss compared to vehicle-treated AA rats” value (Lewis rats with AA [4]) of the same molecule?
Its value is about 50%.

What about the “Radiographic scores compared with vehicle controls” value (Lewis rats with AA [4]) of the same molecule?
The value was “significantly reduced”.

What about the IgG2a production ([5]; blockable by nadolol or IFNγ) of the same molecule?
The IgG2a production was “inhibited”.

And the IgG1 production [5]?
The IgG1 production was “not”.

And the “IL-4 or IL-10 production by Th2 cell clones” value (Th2 cell clones)?
Its value is “does not affect”.

And the “Ratio of IL-10/TNFα” value (IL-10/TNFα; DLN)?
The value was 1.5060 ± 0.1642.

What about the “Ratio of IL-10/TNFα” value (IL-10/TNFα; PBL) of the same molecule?
The value was 0.4382 ± 0.0471.

And the “Ratio of IL-10/TNFα” value (IL-10/TNFα; SPL)?
The value was 2.1370 ± 0.8285.

What about the “IL-2-dependent T cell proliferation” value (Th1 cell clones) of the same molecule?
The value was “reduced”.

What about the “IL-2 and IFNγ production by Th1 cell clones” value (Th1 cell clones; treated before activation with antigen-specific B cells or anti-CD3 antibodies) of the same molecule?
Its value is “inhibits”.
